# Assay results reported in ChEMBL document CHEMBL1153012, “Synthesis and antibacterial activity of novel 5-(4-methyl-1H-1,2,3-triazole) methyl oxazolidinones” (2009).
# What was measured:
# Assay type in all cases: functional
# Haemophilus influenzae [1] = test: Antibacterial activity against Haemophilus influenzae isolate 280 by agar dilution method
# Streptococcus pneumoniae = test: Antibacterial activity against Streptococcus pneumoniae by agar dilution method
# Haemophilus influenzae [2] = test: Antibacterial activity against Haemophilus influenzae isolate 283 by agar dilution method
# Enterococcus [3] = test: Antibacterial activity against vancomycin-sensitive Enterococcus by agar dilution method
# Staphylococcus [4] = test: Antibacterial activity against methicillin resistant coagulase-negative Staphylococcus by agar dilution method
# Staphylococcus aureus [5] = test: Antibacterial activity against Staphylococcus aureus ATCC 25923 by agar dilution method
# Haemophilus influenzae [6] = test: Antibacterial activity against Haemophilus influenzae ATCC 49247 by agar dilution method
# Staphylococcus [7] = test: Antibacterial activity against methicillin-sensitive coagulase-negative Staphylococcus by agar dilution method
# Staphylococcus aureus [8] = test: Antibacterial activity against Staphylococcus aureus ATCC 25923 by agar dilution method in presence of human plasma; details: ATCC 25923, Plasma
# Moraxella catarrhalis = test: Antibacterial activity against Moraxella catarrhalis by agar dilution method
# Haemophilus influenzae [9] = test: Antibacterial activity against Haemophilus influenzae isolate 285 by agar dilution method
# Escherichia coli = test: Antibacterial activity against Escherichia coli ATCC 25922 by agar dilution method
# Enterococcus [10] = test: Antibacterial activity against vancomycin-resistant Enterococcus by agar dilution method
# Staphylococcus aureus [11] = test: Antibacterial activity against methicillin-susceptible Staphylococcus aureus by agar dilution method
# Staphylococcus aureus [12] = test: Antibacterial activity against methicillin-resistant Staphylococcus aureus by agar dilution method
# Haemophilus influenzae [13] = test: Antibacterial activity against Haemophilus influenzae isolate 282 by agar dilution method
Structure (SMILES),MIC (Haemophilus influenzae [1]),MIC (Streptococcus pneumoniae),MIC (Haemophilus influenzae [2]),MIC (Enterococcus [3]),MIC (Staphylococcus [4]),MIC (Staphylococcus aureus [5]),MIC (Haemophilus influenzae [6]),MIC (Staphylococcus [7]),MIC (Staphylococcus aureus [8]),MIC (Moraxella catarrhalis),MIC (Haemophilus influenzae [9]),MIC (Escherichia coli),MIC (Enterococcus [10]),MIC (Staphylococcus aureus [11]),MIC (Staphylococcus aureus [12]),MIC (Haemophilus influenzae [13])
Cc1cn(C[C@H]2CN(c3ccc(N4CCN(C(=O)C5CCCC5)CC4)c(F)c3)C(=O)O2)nn1,32 µg/mL,4 µg/mL,32 µg/mL,2 µg/mL,2 µg/mL,4 µg/mL,32 µg/mL,2 µg/mL,32 µg/mL,32 µg/mL,32 µg/mL,> 64 µg/mL,2 µg/mL,2 µg/mL,2 µg/mL,32 µg/mL
Cc1cn(C[C@H]2CN(c3ccc(N4CCN(C(=O)C5CCCCC5)CC4)c(F)c3)C(=O)O2)nn1,32 µg/mL,4 µg/mL,32 µg/mL,1 µg/mL,1 µg/mL,2 µg/mL,32 µg/mL,1 µg/mL,32 µg/mL,32 µg/mL,32 µg/mL,> 64 µg/mL,1 µg/mL,1 µg/mL,2 µg/mL,32 µg/mL
Cc1cn(C[C@H]2CN(c3ccc(N4CCN(C(=O)/C=C/c5ccccc5)CC4)c(F)c3)C(=O)O2)nn1,> 64 µg/mL,8 µg/mL,> 64 µg/mL,8 µg/mL,8 µg/mL,16 µg/mL,> 64 µg/mL,8 µg/mL,> 64 µg/mL,64 µg/mL,> 64 µg/mL,> 64 µg/mL,8 µg/mL,16 µg/mL,8 µg/mL,> 64 µg/mL
CCOC(=O)N1CCN(c2ccc(N3C[C@H](Cn4cc(C)nn4)OC3=O)cc2F)CC1,64 µg/mL,4 µg/mL,64 µg/mL,1 µg/mL,1 µg/mL,1 µg/mL,64 µg/mL,1 µg/mL,32 µg/mL,16 µg/mL,64 µg/mL,> 64 µg/mL,1 µg/mL,1 µg/mL,1 µg/mL,64 µg/mL
CCCCCCC(=O)N1CCN(c2ccc(N3C[C@H](Cn4cc(C)nn4)OC3=O)cc2F)CC1,> 64 µg/mL,8 µg/mL,> 64 µg/mL,4 µg/mL,8 µg/mL,8 µg/mL,> 64 µg/mL,4 µg/mL,> 64 µg/mL,64 µg/mL,> 64 µg/mL,> 64 µg/mL,4 µg/mL,8 µg/mL,8 µg/mL,> 64 µg/mL
CC(=O)NC[C@H]1CN(c2ccc(N3CCOCC3)c(F)c2)C(=O)O1 [LINEZOLID],8 µg/mL,,16 µg/mL,0.5 µg/mL,0.5 µg/mL,,8 µg/mL,0.5 µg/mL,,8 µg/mL,8 µg/mL,> 64 µg/mL,0.5 µg/mL,0.5 µg/mL,0.5 µg/mL,16 µg/mL
CN[C@H](CC(C)C)C(=O)N[C@H]1C(=O)N[C@@H](CC(N)=O)C(=O)N[C@H]2C(=O)N[C@H]3C(=O)N[C@H](C(=O)N[C@H](C(=O)O)c4cc(O)cc(O)c4-c4cc3ccc4O)[C@H](O)c3ccc(c(Cl)c3)Oc3cc2cc(c3O[C@@H]2O[C@H](CO)[C@@H](O)[C@H](O)[C@H]2O[C@H]2C[C@](C)(N)[C@H](O)[C@H](C)O2)Oc2ccc(cc2Cl)[C@H]1O [VANCOMYCIN],> 16 µg/mL,0.5 µg/mL,> 16 µg/mL,0.25 µg/mL,1 µg/mL,,> 16 µg/mL,1 µg/mL,,> 16 µg/mL,> 16 µg/mL,> 64 µg/mL,> 64 µg/mL,,,> 16 µg/mL
Cc1cn(C[C@H]2CN(c3ccc(N4CCN(C(=O)OC(C)(C)C)CC4)c(F)c3)C(=O)O2)nn1,> 64 µg/mL,8 µg/mL,> 64 µg/mL,,,,> 64 µg/mL,,64 µg/mL,64 µg/mL,> 64 µg/mL,> 64 µg/mL,,2 µg/mL,,> 64 µg/mL
